Experimental data taken from patent publication US20240360060A1, “6-HYDROXY-CANNABIDIOL-C4” (GW RESEARCH LIMITED, priority 2021, published 2024).
Values joined by “and” are separate entries in the source; they are usually repeats but may differ in a detail not shown here. Identical values can stand only once. Like-named read-outs stand apart in the source and are kept apart here.

Experiments:
[1] = tested on: MES model of generalised seizure; details: earlier filing WO 2020/104796; cited from earlier work
[2] = tested on: mouse model of generalised seizure (tonic hind limb extensor convulsions); assay: mini-MEST (maximal electroshock seizure threshold) test in the mouse; details: 30 min post dose
Procedure: The maximal electroshock seizure threshold (MEST) test is widely utilized preclinically to evaluate pro- or anti-convulsant properties of test compounds (Loscher et al., 1991).
In the MEST test the ability of a drug to alter the seizure threshold current required to induce hind limb tonic extensor convulsions is measured according to an “up and down” method of shock titration (Kimball et al., 1957). An increase in seizure threshold is indicative of anti-convulsant effect.
The ability of a test compound to alter the stimulus intensity, expressed as current (mA), required to induce the presence of tonic hind limb extensor convulsions, is assessed in the MEST.
Naïve mice were acclimatized to the procedure room in their home cages for up to 7 days, with food and water available ad libitum.
All animals were weighed at the beginning of the study and randomly assigned to treatment groups based on a mean distribution of body weight across groups.
The first animal within a treatment group was given a shock at the expected or estimated CC50 current. For subsequent animals, the current was lowered or raised depending on the convulsions outcome from the preceding animal in log scale intervals.
Data generated from each treatment group were used to calculate the CC50±SEM values for the treatment group.
The test compound, described herein as Compound I, are as shown as Formula I. Test compound was administered at 150 mg/kg (i.p.) in a 1:2:17 ethanol:solutol:0.9% saline formulation.
The data for each treatment group were recorded as the number of +'s and 0's at each current level employed and this information is then used to calculate the CC50 value (current required for 50% of the animals to show seizure behaviour)±standard error.
Test compound effects were also calculated as percentage change in CC50 from the vehicle control group.
Significant difference between drug-treated animals and controls were assessed according to Litchfield and Wilcoxon (1949).

[3] = Bioanalysis of Compound I in plasma and brain (UPLC-MS/MS); format: in vivo, mice; details: 150 mg/kg i.p., 30 min post-dose, mouse; for concentration at 30 min: ip, 150 mg/kg
Procedure: Each animal was humanely killed immediately after production of a convulsion by destruction of the brain from striking the cranium, followed by the confirmation of permanent cessation of the circulation from decapitation under The Humane Killing of Animals under Schedule 1 to the Animals (Scientific Procedures) Act 1986. Terminal blood and brain collection were performed following decapitation.
Blood was collected in Lithium-heparin tubes and centrifuged at 4° C. for 10 minutes at 1500×g. The resulting plasma was removed (>100 μL) and split into 2 aliquots of 0.5 mL Eppendorf tubes containing 10 μL of ascorbic acid (100 mg/mL) for stabilisation. Brains were removed, washed in saline and halved. Each half was placed into separate 2 mL screw cap cryovials, weighed and frozen on cardice.
Bioanalysis experiments were carried out to determine the quantitative measurement of Compound I in plasma and brain.
Six mice were dosed with Compound I at 150 mg/kg via intraperitoneal (i.p) injection. Sample analysis was performed 30 min post-dose using a sample volume of 40 μL. Following addition of internal standard (in acetonitrile) and Isopropanol samples were protein precipitated by addition of acetonitrile. Samples were centrifuged and supernatant transferred to a clean 96-well plate (with addition of Tween to minimise non-specific binding to plate materials), evaporated to dryness then reconstituted in suitable solvent. The extracts quantified by ultraperformance liquid chromatography-tandem mass spectromtry (UPLC-MS/MS).

**Q.** For `C=C(C)[C@@H]1CCC(C)=C[C@H]1c1c(O)cc(CCCC)cc1O` [CBD-C4, Cannabidiol-C4], which anti-convulsant activity [1] is on record?
**A.** Therapeutic efficacy was shown

**Q.** With `C=C(C)[C@@H]1C[C@H](O)C(C)=C[C@H]1c1c(O)cc(CCCC)cc1O` [Compound I, (1′R,2′R,4′S)-4-butyl-5′-methyl-2′-(prop-1-en-2-yl)-1′,2′,3′,4′-tetrahydro-[1,1′-biphenyl]-2,4′,6-triol] as the compound, how does the “tonic hind limb convulsions in treatment group” value ([2]; 150 mg/kg i.p., 6 animals) read?
**A.** did not have any convulsions

**Q.** And the “CC50 +/- SEM (current required for 50% of the animals to show seizure behaviour)” value ([2]; 150 mg/kg i.p., N=6)?
**A.** >131 mA

**Q.** And the “Conc. in brain (individual animals; head: Plasma Conc.)” value ([3]; brain)?
**A.** 17.696 µM and 200.472 µM and 183.889 µM and 173.842 µM and 212.516 µM and 228.344 µM

**Q.** And the concentration at 30 min ([3]; brain, brain, n=6, read-out: Mean conc. in brain (head: Mean Plasma Conc.))?
**A.** 169 µM

**Q.** And the concentration at 30 min ([3]; plasma, plasma, n=6, read-out: Mean Plasma Conc.)?
**A.** 255 µM

**Q.** And the “Plasma Conc. (individual animals)” value ([3]; plasma)?
**A.** 379.642 µM and 242.369 µM and 47.322 µM and 295.516 µM and 268.44 µM and 299.404 µM

**Q.** For `CN1C(=O)CN=C(c2ccccc2)c2cc(Cl)ccc21` [Diazepam, diazepam, reference compound], which “% change from vehicle (CC50)” value ([2]; 2.5 mg/kg i.p.) is on record?
**A.** 291%
